Values quoted from earlier work in PMC8476002, “Bergamottin a CYP3A inhibitor found in grapefruit juice inhibits prostate cancer cell growth by downregulating androgen receptor signaling and promoting G0/G1 cell cycle block and apoptosis” (PLoS ONE, 2021).

Tests used:
[1] = tested on: cell growth; conditions: earlier work of the authors; cited from earlier work
[2] = tested on: cytoplasmic AR; set-up: method as in PMID 32316460; conditions: cited from earlier work

| Compound | cell growth [1] | cytoplasmic AR [2] |
| --- | --- | --- |
| CC[C@]1(C)C[C@@H](OC(=O)CSc2nnc(N)[nH]2)[C@]2(C)[C@H](C)CC[C@]3(CCC(=O)[C@H]32)[C@@H](C)[C@@H]1O [azamulin] | cell growth is inhibited | – |
| CC(C)c1nc(CN(C)C(=O)N[C@H](C(=O)N[C@@H](Cc2ccccc2)C[C@H](O)[C@H](Cc2ccccc2)NC(=O)OCc2cncs2)C(C)C)cs1 [ritonavir] | – | increase in cytoplasmic AR |
